# Test results reported in US20050192245A1, “Medicinal composition for treating arteriosclerosis” (SANKYO COMPANY, LIMITED, priority 2002, published 2005).
# System: atherogenic lesions of the right femoral artery (arteriosclerosis)
# Experiment: Atherogenic lesions in cholesterol diet-loaded rabbits with Nylon thread-induced chronic endothelial damage (right femoral artery)
# Assay type: in vivo, male New Zealand White rabbits
# Conditions: oral, 8 weeks
# Method: A test was conducted in which male New Zealand White rabbits (body weights: 1.0 to 1.5 kg) were loaded for 10 weeks with a cholesterol diet (0.5% cholesterol, 3% peanut oil and 3% coconut oil) in the amounts indicated below. The animals were fed 40 g for the first two weeks, 50 g for the next four weeks, and 60 g for the final four weeks. Two weeks after cholesterol diet loading, a Nylon thread was aseptically inserted from the right femoral artery to the vicinity of the diaphragm to induce chronic endothelial damage in the abdominal aorta and right femoral artery. The Nylon thread was immobilized for 8 weeks at the insertion site. Following surgery to insert the Nylon thread, the animals were grouped so that the average values of serum total cholesterol, triglycerides, platelet aggregation and body weight of each group were nearly equal, followed by oral administration of the ADP receptor antagonist and the ACAT inhibitor either alone or combined. After necrotomy of the animals 8 weeks after administration, the right femoral arteries were excised and the ratio of the surface area covered by atherogenic lesions was calculated. After exposing the right femoral artery (by 1 cm from the branch of the iliac artery), it was photographed with a digital camera (COOLPX990, Nikon) followed by measurement of the surface area of the lumen and the surface area covered by atherogenic lesions using an image analyzer, and calculation of the ratio of the surface area covered by atherogenic lesions relative to the surface area of the aorta lumen as a percentage. In addition, a section 1 cm from the branch of the iliac artery on the side of the femoral artery was cut out and after fixing in methanol-carnoy solution, was embedded in a paraffin block. After slicing into thin sections, the sections were immunostained using Elastica-Masson stain and anti-human α-actin antibody (1A4) followed by calculating the degree of medial intimal thickness and the smooth muscle cell occupancy rate using an image analyzer. In the table, Compound A represent 2-acetoxy-5-(α-cyclopropylcarbonyl-2-fluorobenzyl)-4,5,6,7-tetrahydrothieno[3,2-c]pyridine, and Compound B represents sulfate of N-(1-octyl-5-carboxymethyl-4,6-dimethylindolin-7-yl)-2,2-dimethylpropanamide.
Compound,Medial intimal thickness (%) (Compound B 3 mg/kg),Ratio of lesion surface area (%) (Compound B 3 mg/kg),Smooth muscle cell occupancy rate (%) (Compound B 3 mg/kg),Medial intimal thickness (%) (Compound A 1 mg/kg),Ratio of lesion surface area (%) (Compound A 1 mg/kg),"Smooth muscle cell occupancy rate in lesion at 1 mg/kg (Oryctolagus cuniculus, 1344 h, Compound A 1 mg/kg)"
"CCCCCCCCN1CCc2c(C)c(CC(=O)O)c(C)c(NC(=O)C(C)(C)C)c21.O=S(=O)(O)O [Compound B, sulfate of N-(1-octyl-5-carboxymethyl-4,6-dimethylindolin-7-yl)-2,2-dimethylpropanamide]",60.0 ± 34.2 %,40.6 ± 19.8 %,25.6 ± 14.8 %,–,–,–
"CC(=O)Oc1cc2c(s1)CCN(C(C(=O)C1CC1)c1ccccc1F)C2 (stereo not drawn) [Compound A, 2-acetoxy-5-(α-cyclopropylcarbonyl-2-fluorobenzyl)-4,5,6,7-tetrahydrothieno[3,2-c]pyridine]",–,–,–,275.4 ± 153.4%,47.2 ± 14.2%,5.5 ± 1.5%
